Where “and” joins values, the source holds several entries; their conditions need not be identical. Identical values can stand only once.
System: 855422-203-R-J1-PDC spheroids with HUVEC/MSC, viability
Assay: Anticancer human tumor 855422-203-R-J1-PDC patient-derived bladder carcinoma cell line growth inhibition [PI3K]
Conditions: for viability, T/C: stronger effect = lower value
Method in brief: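 Agents were dosed from a top concentration near clinical Cmax (otherwise 10 microM) in half-log decrements, alone or combined with PI3K inhibitors. The spheroids contain tumor cells plus endothelial (HUVEC) and MSC stroma; viability is measured.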

[1] = curve of first compound, second compound 0.0316 µM
[2] = curve of first compound, second compound 0.1 µM
[3] = curve of first compound, second compound 0.316 µM
[4] = curve of first compound, second compound 1 µM
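Note: agents incubated with spheroids for one week before read-out.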
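Throughout, for viability, T/C: 100% = DMSO vehicle-treated control wells.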

Cn1cnc2c(F)c(Nc3ccc(Br)cc3Cl)c(C(=O)NOCCO)cc21 + CC(Nc1ncnc2nc[nH]c12)c1cc2cccc(Cl)c2c(=O)n1-c1ccccc1
IC50 [1]: > 3000 nM | IC50 [2]: > 3000 nM | IC50 [3]: 2380 nM | IC50 [4]: 2170 nM | IC50 (curve of first compound, second compound 3.16 µM): 1650 nM | IC50 (curve of first compound, second compound 10 µM): 529 nM | viability, T/C (second compound 0.0316 µM, first compound 0.00949 µM): 116% | viability, T/C (second compound 0.0316 µM, first compound 0.03 µM): 90.7% | viability, T/C (second compound 0.0316 µM, first compound 0.0949 µM): 114% | viability, T/C (second compound 0.0316 µM, first compound 0.3 µM): 87.9% | viability, T/C (second compound 0.0316 µM, first compound 0.949 µM): 78.6% | viability, T/C (second compound 0.0316 µM, first compound 3 µM): 50.4% | viability, T/C (second compound 0.1 µM, first compound 0.00949 µM): 109% | viability, T/C (second compound 0.1 µM, first compound 0.03 µM): 97% | viability, T/C (second compound 0.1 µM, first compound 0.0949 µM): 104% | viability, T/C (second compound 0.1 µM, first compound 0.3 µM): 93.8% | viability, T/C (second compound 0.1 µM, first compound 0.949 µM): 90.5% | viability, T/C (second compound 0.1 µM, first compound 3 µM): 50.1% | viability, T/C (second compound 0.316 µM, first compound 0.00949 µM): 91.2% | viability, T/C (second compound 0.316 µM, first compound 0.03 µM): 100% | viability, T/C (second compound 0.316 µM, first compound 0.0949 µM): 101% | viability, T/C (second compound 0.316 µM, first compound 0.3 µM): 103% | viability, T/C (second compound 0.316 µM, first compound 0.949 µM): 80.2% | viability, T/C (second compound 0.316 µM, first compound 3 µM): 42.4% | viability, T/C (second compound 1 µM, first compound 0.00949 µM): 86.9% | viability, T/C (second compound 1 µM, first compound 0.03 µM): 96.3% | viability, T/C (second compound 1 µM, first compound 0.0949 µM): 103% | viability, T/C (second compound 1 µM, first compound 0.3 µM): 88.1% | viability, T/C (second compound 1 µM, first compound 0.949 µM): 79% | viability, T/C (second compound 1 µM, first compound 3 µM): 38.7% | viability, T/C (second compound 3.16 µM, first compound 0.00949 µM): 97% | viability, T/C (second compound 3.16 µM, first compound 0.03 µM): 96.5% | viability, T/C (second compound 3.16 µM, first compound 0.0949 µM): 100% | viability, T/C (second compound 3.16 µM, first compound 0.3 µM): 87.3% | viability, T/C (second compound 3.16 µM, first compound 0.949 µM): 67.3% | viability, T/C (second compound 3.16 µM, first compound 3 µM): 31.8% | viability, T/C (second compound 10 µM, first compound 0.00949 µM): 85.9% | viability, T/C (second compound 10 µM, first compound 0.03 µM): 74.1% | viability, T/C (second compound 10 µM, first compound 0.0949 µM): 70.9% | viability, T/C (second compound 10 µM, first compound 0.3 µM): 58.6% | viability, T/C (second compound 10 µM, first compound 0.949 µM): 41.6% | viability, T/C (second compound 10 µM, first compound 3 µM): 21.4%

CC1(C)CCC(CN2CCN(c3ccc(C(=O)NS(=O)(=O)c4ccc(NCC5CCOCC5)c([N+](=O)[O-])c4)c(Oc4cnc5[nH]ccc5c4)c3)CC2)=C(c2ccc(Cl)cc2)C1
viability, T/C (compound 0.0316 µM): 107% [middle of 4 runs] | viability, T/C (compound 0.1 µM): 92.7% [middle of 4 runs] | viability, T/C (compound 0.316 µM): 118% [middle of 4 runs] | viability, T/C (compound 1 µM): 102% and 95.7% and 103% (2×) | viability, T/C (compound 10 µM): 2.29% [middle of 4 runs] | IC50 (curve of compound): 4.81 µM [middle of 4 runs]

CC(=O)c1c(C)c2cnc(Nc3ccc(N4CCNCC4)cn3)nc2n(C2CCCC2)c1=O
viability, T/C (compound 0.000316 µM): 105% (2×) and 96.8% and 106% | viability, T/C (compound 0.001 µM): 90.8% [middle of 4 runs] | viability, T/C (compound 0.00316 µM): 115% [middle of 4 runs] | viability, T/C (compound 0.01 µM): 100% (2×) and 98.9% and 98.4% | viability, T/C (compound 0.0316 µM): 99% [middle of 4 runs] | viability, T/C (compound 0.1 µM): 83.8% [middle of 4 runs] | IC50 (curve of compound): > 100 nM

CCCS(=O)(=O)Nc1ccc(F)c(C(=O)c2c[nH]c3ncc(-c4ccc(Cl)cc4)cc23)c1F + COc1c(OCCCN2CCOCC2)ccc2c3n(c(=NC(=O)c4cnc(N)nc4)nc12)CCN3
IC50 (curve of first compound, second compound 0.00316 µM): 4390 nM | IC50 (curve of first compound, second compound 0.01 µM): 4840 nM | IC50 [1]: 3060 nM | IC50 [2]: < 31.6 nM | IC50 [3]: < 31.6 nM | IC50 [4]: < 31.6 nM | viability, T/C (second compound 0.00316 µM, first compound 0.0316 µM): 97.6% | viability, T/C (second compound 0.00316 µM, first compound 0.1 µM): 83.8% | viability, T/C (second compound 0.00316 µM, first compound 0.316 µM): 87.2% | viability, T/C (second compound 0.00316 µM, first compound 1 µM): 82.5% | viability, T/C (second compound 0.00316 µM, first compound 3.16 µM): 71.3% | viability, T/C (second compound 0.00316 µM, first compound 10 µM): 0.07% | viability, T/C (second compound 0.01 µM, first compound 0.0316 µM): 105% | viability, T/C (second compound 0.01 µM, first compound 0.1 µM): 89.5% | viability, T/C (second compound 0.01 µM, first compound 0.316 µM): 83% | viability, T/C (second compound 0.01 µM, first compound 1 µM): 90.6% | viability, T/C (second compound 0.01 µM, first compound 3.16 µM): 78.9% | viability, T/C (second compound 0.01 µM, first compound 10 µM): 0.31% | viability, T/C (second compound 0.0316 µM, first compound 0.0316 µM): 68.2% | viability, T/C (second compound 0.0316 µM, first compound 0.1 µM): 75.1% | viability, T/C (second compound 0.0316 µM, first compound 0.316 µM): 78.6% | viability, T/C (second compound 0.0316 µM, first compound 1 µM): 67.1% | viability, T/C (second compound 0.0316 µM, first compound 3.16 µM): 49.7% | viability, T/C (second compound 0.0316 µM, first compound 10 µM): 0.93% | viability, T/C (second compound 0.1 µM, first compound 0.0316 µM): 34.5% | viability, T/C (second compound 0.1 µM, first compound 0.1 µM): 35.3% | viability, T/C (second compound 0.1 µM, first compound 0.316 µM): 34.1% | viability, T/C (second compound 0.1 µM, first compound 1 µM): 32.4% | viability, T/C (second compound 0.1 µM, first compound 3.16 µM): 23.9% | viability, T/C (second compound 0.1 µM, first compound 10 µM): 1.58% | viability, T/C (second compound 0.316 µM, first compound 0.0316 µM): 11.9% | viability, T/C (second compound 0.316 µM, first compound 0.1 µM): 11.4% | viability, T/C (second compound 0.316 µM, first compound 0.316 µM): 11.9% | viability, T/C (second compound 0.316 µM, first compound 1 µM): 11.8% | viability, T/C (second compound 0.316 µM, first compound 3.16 µM): 8.59% | viability, T/C (second compound 0.316 µM, first compound 10 µM): 0.86% | viability, T/C (second compound 1 µM, first compound 0.0316 µM): 4.83% | viability, T/C (second compound 1 µM, first compound 0.1 µM): 3.64% | viability, T/C (second compound 1 µM, first compound 0.316 µM): 4.81% | viability, T/C (second compound 1 µM, first compound 1 µM): 6.51% | viability, T/C (second compound 1 µM, first compound 3.16 µM): 3.75% | viability, T/C (second compound 1 µM, first compound 10 µM): 2%

Source: PubChem BioAssay AID1963967 (Molecular Pharmacology Branch, DTP, NCI, 2024)
